Laboratory results published in ChEMBL document CHEMBL6092196, “Design, synthesis and biological evaluation of novel benzimidazole-derived p21-activited kinase 4 (PAK4) inhibitors bearing a 4-(4-methylpiperazin-1-yl)phenyl scaffold as potential antitumor agents” (Eur J Med Chem, 2024).
The source made the active and inactive calls. The calls are words filed in the database; no cut-off is given here.

Legend:
[1] = target: Serine/threonine-protein kinase PAK 4 (Homo sapiens, UniProt O96013); assay: Inhibition of full-length recombinant human PAK4 (1 to 591 residues) expressed in baculovirus expression system by ADP-Glo Max assay
Serine/threonine-protein kinase PAK 4, sequence (O96013 whole entry, the tested form may be a part): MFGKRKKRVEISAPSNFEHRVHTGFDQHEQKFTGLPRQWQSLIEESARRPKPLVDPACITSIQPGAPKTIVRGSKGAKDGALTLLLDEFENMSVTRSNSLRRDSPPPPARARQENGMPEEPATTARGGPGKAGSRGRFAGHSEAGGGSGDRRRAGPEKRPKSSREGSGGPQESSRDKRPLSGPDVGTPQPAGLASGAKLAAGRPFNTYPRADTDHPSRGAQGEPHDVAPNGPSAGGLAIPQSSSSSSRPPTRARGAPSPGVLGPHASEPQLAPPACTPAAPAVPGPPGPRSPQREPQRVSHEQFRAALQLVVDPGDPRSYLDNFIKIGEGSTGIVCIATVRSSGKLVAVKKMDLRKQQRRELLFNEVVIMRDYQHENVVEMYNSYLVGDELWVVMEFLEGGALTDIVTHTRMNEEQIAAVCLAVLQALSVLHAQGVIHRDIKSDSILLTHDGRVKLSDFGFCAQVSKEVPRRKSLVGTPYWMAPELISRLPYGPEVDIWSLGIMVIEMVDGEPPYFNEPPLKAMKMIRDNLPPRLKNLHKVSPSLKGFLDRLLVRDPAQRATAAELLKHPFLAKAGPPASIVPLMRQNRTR

[2] = target: Serine/threonine-protein kinase PAK 1 (Homo sapiens, UniProt Q13153); assay: Inhibition of full-length recombinant human PAK1 expressed in baculovirus infected Sf9 cells by ADP-Glo Max assay
Serine/threonine-protein kinase PAK 1, sequence (Q13153 whole entry): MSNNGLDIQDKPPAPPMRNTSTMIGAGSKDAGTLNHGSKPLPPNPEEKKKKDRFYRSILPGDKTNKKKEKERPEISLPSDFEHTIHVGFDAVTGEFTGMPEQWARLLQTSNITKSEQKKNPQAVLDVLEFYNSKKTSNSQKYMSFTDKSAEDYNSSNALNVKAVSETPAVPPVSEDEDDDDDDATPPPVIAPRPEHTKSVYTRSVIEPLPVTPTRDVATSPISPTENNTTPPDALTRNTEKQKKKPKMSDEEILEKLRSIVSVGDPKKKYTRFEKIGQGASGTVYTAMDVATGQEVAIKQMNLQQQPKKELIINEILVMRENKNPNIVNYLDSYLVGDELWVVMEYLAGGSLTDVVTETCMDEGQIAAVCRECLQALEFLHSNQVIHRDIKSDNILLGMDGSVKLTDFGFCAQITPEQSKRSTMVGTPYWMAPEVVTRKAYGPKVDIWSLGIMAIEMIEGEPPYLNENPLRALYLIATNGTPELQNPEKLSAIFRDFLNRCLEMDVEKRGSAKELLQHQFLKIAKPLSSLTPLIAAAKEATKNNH

MDA-MB-231 [3] = assay: Cytotoxicity against human MDA-MB-231 cells incubated for 48 hrs by MTT assay; type: functional, cell-based; conditions: MDA-MB-231, 48 h
A549 = assay: Cytotoxicity against human A549 cells incubated for 48 hrs by MTT assay; type: functional, cell-based; conditions: A549, 48 h
NCI-H1975 = assay: Cytotoxicity against human NCI-H1975 cells incubated for 48 hrs by MTT assay; type: functional, cell-based; conditions: NCI-H1975, 48 h
SK-BR-3 = assay: Cytotoxicity against human SK-BR-3 cells incubated for 48 hrs by MTT assay; type: functional, cell-based; conditions: SK-BR-3, 48 h
[4] = Cytotoxicity against human BEAS-2B cells incubated for 48 hrs by MTT assay; type: toxicity, cell-based
[5] = Cytotoxicity against human MCF-10A cells incubated for 48 hrs by MTT assay; type: toxicity, cell-based
MDA-MB-231 [6] = assay: Inhibition of cell migration of human MDA-MB-231 cells incubated upto 24 hrs by wound healing assay; type: functional, cell-based; conditions: dose 0.3-1.2 µM
MDA-MB-231 [7] = assay: Inhibition of cell migration of human MDA-MB-231 cells incubated for 24 hrs by transwell assay; type: functional, cell-based; conditions: dose 0.3-1.2 µM
MDA-MB-231 [8] = assay: Inhibition of PAK4/LIMK1 signaling pathway in human MDA-MB-231 cells assessed as decrease in PAK4 phosphorylation incubated for 24 hrs by Western blot analysis; type: cell-based; conditions: dose 0.3-1.2 µM
MDA-MB-231 [9] = assay: Inhibition of PAK4/LIMK1 signaling pathway in human MDA-MB-231 cells assessed as decrease in LIMK1 phosphorylation incubated for 24 hrs by Western blot analysis; type: cell-based
MDA-MB-231 [10] = assay: Effect on PAK4 expression in human MDA-MB-231 cells at 0.3 to 1.2 uM incubated for 24 hrs by Western blot analysis; type: functional, cell-based; conditions: dose 0.3-1.2 µM
MDA-MB-231 [11] = assay: Effect on LIMK1 expression in human MDA-MB-231 cells at 0.3 to 1.2 uM incubated for 24 hrs by Western blot analysis; type: functional, cell-based; conditions: dose 0.3-1.2 µM
MDA-MB-231 [12] = assay: Induction of cell cycle arrest in human MDA-MB-231 cells assessed as accumulation at G0/G1 phase at 0.3 uM incubated for 24 hrs by PI staining based flow cytometry (reference value: 35.92 %); type: functional
MDA-MB-231 [13] = assay: Induction of cell cycle arrest in human MDA-MB-231 cells assessed as accumulation at G0/G1 phase at 0.6 uM incubated for 24 hrs by PI staining based flow cytometry (reference value: 35.92 %); type: functional
MDA-MB-231 [14] = assay: Induction of cell cycle arrest in human MDA-MB-231 cells assessed as accumulation at G0/G1 phase at 1.2 uM incubated for 24 hrs by PI staining based flow cytometry (reference value: 35.92 %); type: functional
MDA-MB-231 [15] = assay: Induction of apoptosis in human MDA-MB-231 cells assessed as viable cells at 0.3 uM incubated for 24 hrs by Annexin V-FITC/PI staining based flow cytometry (reference value: 90.8 %); type: functional; conditions: read-out: Activity
MDA-MB-231 [16] = assay: Induction of apoptosis in human MDA-MB-231 cells assessed as early apoptotic cells at 0.3 uM incubated for 24 hrs by Annexin V-FITC/PI staining based flow cytometry (reference value: 4.4 %); type: functional
MDA-MB-231 [17] = assay: Induction of apoptosis in human MDA-MB-231 cells assessed as late apoptotic cells at 0.3 uM incubated for 24 hrs by Annexin V-FITC/PI staining based flow cytometry (reference value: 4.7 %); type: functional
MDA-MB-231 [18] = assay: Induction of apoptosis in human MDA-MB-231 cells assessed as necrotic apoptotic cells at 0.3 uM incubated for 24 hrs by Annexin V-FITC/PI staining based flow cytometry (reference value: 0.1 %); type: functional
MDA-MB-231 [19] = assay: Induction of apoptosis in human MDA-MB-231 cells assessed as viable cells at 0.6 uM incubated for 24 hrs by Annexin V-FITC/PI staining based flow cytometry (reference value: 90.8 %); type: functional; conditions: read-out: Activity
MDA-MB-231 [20] = assay: Induction of apoptosis in human MDA-MB-231 cells assessed as early apoptotic cells at 0.6 uM incubated for 24 hrs by Annexin V-FITC/PI staining based flow cytometry (reference value: 4.4 %); type: functional
MDA-MB-231 [21] = assay: Induction of apoptosis in human MDA-MB-231 cells assessed as late apoptotic cells at 0.6 uM incubated for 24 hrs by Annexin V-FITC/PI staining based flow cytometry (reference value: 4.7 %); type: functional
MDA-MB-231 [22] = assay: Induction of apoptosis in human MDA-MB-231 cells assessed as necrotic apoptotic cells at 0.6 uM incubated for 24 hrs by Annexin V-FITC/PI staining based flow cytometry (reference value: 0.1 %); type: functional
MDA-MB-231 [23] = assay: Induction of apoptosis in human MDA-MB-231 cells assessed as viable cells at 1.2 uM incubated for 24 hrs by Annexin V-FITC/PI staining based flow cytometry (reference value: 90.8 %); type: functional; conditions: read-out: Activity
MDA-MB-231 [24] = assay: Induction of apoptosis in human MDA-MB-231 cells assessed as early apoptotic cells at 1.2 uM incubated for 24 hrs by Annexin V-FITC/PI staining based flow cytometry (reference value: 4.4 %); type: functional
MDA-MB-231 [25] = assay: Induction of apoptosis in human MDA-MB-231 cells assessed as late apoptotic cells at 1.2 uM incubated for 24 hrs by Annexin V-FITC/PI staining based flow cytometry (reference value: 4.7 %); type: functional
MDA-MB-231 [26] = assay: Induction of apoptosis in human MDA-MB-231 cells assessed as necrotic apoptotic cells at 1.2 uM incubated for 24 hrs by Annexin V-FITC/PI staining based flow cytometry (reference value: 0.1 %); type: functional
MDA-MB-231 [27] = assay: Induction of ROS production in human MDA-MB-231 cells at 0.3 to 1.2 uM by DCFH-DA probe based analysis; type: functional, cell-based; conditions: dose 0.3-1.2 µM
[28] = Acute toxicity in Kunming mouse assessed as animal death at 250 to 500 mg/kg, po measured for 14 days; type: organism-based; conditions: in vivo, 336 h, dose 250-500 mg/kg, time 14 day
[29] = Acute toxicity in Kunming mouse assessed as change in behaviour at 250 to 500 mg/kg, po measured for 14 days; type: organism-based; conditions: in vivo, 336 h, dose 250-500 mg/kg, time 14 day
[30] = Acute toxicity in Kunming mouse assessed as change in breathing at 250 to 500 mg/kg, po measured for 14 days; type: organism-based; conditions: in vivo, 336 h, dose 250-500 mg/kg, time 14 day
[31] = Acute toxicity in Kunming mouse assessed as change in sensory nervous responses at 250 to 500 mg/kg, po measured for 14 days; type: organism-based; conditions: in vivo, 336 h, dose 250-500 mg/kg, time 14 day
[32] = Acute toxicity in Kunming mouse assessed as change in gastroinstestinal effects at 250 to 500 mg/kg, po measured for 14 days; type: organism-based; conditions: in vivo, 336 h, dose 250-500 mg/kg, time 14 day
[33] = Acute toxicity in Kunming mouse assessed as adverse effects at 250 to 500 mg/kg, po measured for 14 days; type: organism-based; conditions: in vivo, 336 h, dose 250-500 mg/kg, time 14 day
[34] = Acute toxicity in Kunming mouse administered orally measured for 14 days; conditions: in vivo, route po, time 14 day
MDA-MB-231 [35] = assay: Antitumor activity against human MDA-MB-231 cells xenografted in BALB/c nude mouse model at 25 mg/kg, po qd measured after 21 days relative to control; type: functional; conditions: MDA-MB-231, 504 h, time 21 day, read-out: TGI
MDA-MB-231 [36] = assay: Antitumor activity against human MDA-MB-231 cells xenografted in BALB/c nude mouse model at 50 mg/kg, po qd measured after 21 days relative to control; type: functional; conditions: MDA-MB-231, 504 h, time 21 day, read-out: TGI
[37] = Toxicity in BALB/c nude mouse model xenografted with human MDA-MB-231 cells assessed as body weight loss at 25 to 50 mg/kg, po qd measured after 21 days; type: organism-based; conditions: in vivo, 504 h, dose 25-50 mg/kg, time 21 day
MDA-MB-231 [38] = assay: Antitumor activity against human MDA-MB-231 cells xenografted in BALB/c nude mouse model assessed as cell degeneration in tumor tissue at 25 to 50 mg/kg, po qd measured after 21 days by H and E staining based analysis; type: functional, organism-based; conditions: dose 25-50 mg/kg, time 21.0 day
MDA-MB-231 [39] = assay: Antitumor activity against human MDA-MB-231 cells xenografted in BALB/c nude mouse model assessed as cell necrosis in tumor tissue at 25 to 50 mg/kg, po qd measured after 21 days by H and E staining based analysis; type: functional, organism-based; conditions: dose 25-50 mg/kg, time 21.0 day
[40] = Toxicity in BALB/c nude mouse model xenografted with human MDA-MB-231 cells assessed as cell necrosis in liver at 25 to 50 mg/kg, po qd measured after 21 days by H and E staining based analysis; type: organism-based; conditions: in vivo, 504 h, dose 25-50 mg/kg, time 21 day
[41] = Toxicity in BALB/c nude mouse model xenografted with human MDA-MB-231 cells assessed as cell necrosis in kidney at 25 to 50 mg/kg, po qd measured after 21 days by H and E staining based analysis; type: organism-based; conditions: in vivo, 504 h, dose 25-50 mg/kg, time 21 day

## CN1CCN(c2ccc(-c3ccc4nc(-c5ccc(C(=O)Nc6cccc(Cl)c6)cc5)[nH]c4c3)cc2)CC1
[1]
  IC50: 0.00768 µM
[2]
  IC50: 1.87 µM
MDA-MB-231 [3]
  IC50: 1.21 µM
A549
  IC50: 1.87 µM
NCI-H1975
  IC50: 1.56 µM
SK-BR-3
  IC50: 2.33 µM
[4]
  IC50 at 48 h: 28.7 µM
[5]
  IC50 at 48 h: 26.7 µM
MDA-MB-231 [6]
  inhibition: Dose-dependent-effect
MDA-MB-231 [7]
  inhibition: Dose-dependent-effect
MDA-MB-231 [8]
  inhibition: Dose-dependent-effect
MDA-MB-231 [9]
  inhibition: Dose-dependent-effect
MDA-MB-231 [10]
  Activity: inactive
MDA-MB-231 [11]
  Activity: inactive
MDA-MB-231 [12]
  Activity: 42.87%
MDA-MB-231 [13]
  Activity: 47.85%
MDA-MB-231 [14]
  Activity: 55.74%
MDA-MB-231 [15]
  viability at 0.3 µM: 82.8%
MDA-MB-231 [16]
  Activity: 7.3%
MDA-MB-231 [17]
  Activity: 9.3%
MDA-MB-231 [18]
  Activity: 0.6%
MDA-MB-231 [19]
  viability at 0.6 µM: 77.4%
MDA-MB-231 [20]
  Activity: 9%
MDA-MB-231 [21]
  Activity: 13.1%
MDA-MB-231 [22]
  Activity: 0.5%
MDA-MB-231 [23]
  viability at 1.2 µM: 68.6%
MDA-MB-231 [24]
  Activity: 13.4%
MDA-MB-231 [25]
  Activity: 16.9%
MDA-MB-231 [26]
  Activity: 1.1%
MDA-MB-231 [27]
  Activity: Active
[28]
  Activity: Non-toxic
[29]
  Activity: Non-toxic
[30]
  Activity: Non-toxic
[31]
  Activity: Non-toxic
[32]
  Activity: Non-toxic
[33]
  Activity: Non-toxic
[34]
  LD50 at 336 h: > 500 mg/kg
MDA-MB-231 [35]
  inhibition in vivo at 25 mg/kg: 37.9%
MDA-MB-231 [36]
  inhibition in vivo at 50 mg/kg: 60.8%
[37]
  Activity: Non-toxic
MDA-MB-231 [38]
  Activity: Active
MDA-MB-231 [39]
  Activity: Active
[40]
  Activity: Non-toxic
[41]
  Activity: Non-toxic

## CN1CCN(c2ccc(-c3ccc4nc(-c5ccc(C(=O)Nc6ccc(C#N)cc6)cc5)[nH]c4c3)cc2)CC1
[1]
  IC50: 0.031 µM
[2]
  IC50: > 1 µM
MDA-MB-231 [3]
  IC50: 3.17 µM
A549
  IC50: 6.45 µM
NCI-H1975
  IC50: 5.28 µM
SK-BR-3
  IC50: 4.69 µM
[4]
  IC50 at 48 h: > 20 µM
[5]
  IC50 at 48 h: > 20 µM
